# Results from US20210251983A1, “METHODS OF TREATMENT WITH BUPRENORPHINE” (BioDelivery Sciences International, Inc., priority 2020, published 2021).
# “Also recorded” adds a separate entry of the source.
# Assays:
# pupil diameter = test: Pupillometry during VRH testing; format: in vivo, human; conditions: time after dosing
# [1] = Treatment-emergent adverse events
# respiratory drive = test: Ventilatory response to hypercapnia (VRH) test of respiratory drive, phase I placebo-controlled crossover trial
# [2] = Pharmacokinetic assessment - abuse quotient (plasma Cmax, Tmax, AUC0-last, AQ); conditions: for AUC(0-t) / Cmax / Tmax: both, human, plasma, oral
structure (smiles),measurement,setting,value
"COc1ccc2c3c1O[C@H]1C(=O)CC[C@@]4(O)[C@@H](C2)N(C)CC[C@]314.Cl [IR Oxycodone, oxycodone hydrochloride]",initial onset of statistically significant miosis (relative to placebo),pupil diameter; oxycodone 30 mg,0.5 h
same,initial onset of statistically significant miosis (relative to placebo),pupil diameter; oxycodone 60 mg,0.5 h
same,treatment-emergent adverse events,[1]; all doses,produced some adverse events
same,treatment-emergent adverse events,[1]; oxycodone 60 mg,highest percentage of adverse events in all categories
same,effect on respiratory drive (Emax) relative to placebo,"respiratory drive; across all doses tested (BBF 300-900 μg; oxycodone 30, 60 mg), hydrochloride",dose-dependent decrease in respiratory drive; also recorded: decreased respiratory drive in a dose-dependent fashion
same,least square mean difference in Emax (maximum minute ventilation) versus placebo,"respiratory drive; oral oxycodone 30 mg, P=0.668",−828.5
same,least square mean difference in Emax (maximum minute ventilation) versus placebo,"respiratory drive; oral oxycodone 60 mg, P=0.008",−5188.6
same,minute ventilation relative to placebo,respiratory drive; oxycodone 30 mg,significant (P<0.05) decrease at one hour post-dose
same,Peak Expiratory Flow Rate (PEFR) relative to placebo,"respiratory drive; oxycodone 30 mg, 1 hour post-dose",significant (P<0.05) decrease in PEFR at 1 hour post-dose
same,minute ventilation relative to placebo,respiratory drive; oxycodone 60 mg,"significant (P<0.05) decreases at 1 hour, 2 hour, and 4 hours post-dose"
same,Peak Expiratory Flow Rate (PEFR) relative to placebo,"respiratory drive; oxycodone 60 mg, 30 minutes post-dose",significant (P<0.05) decrease at 30 minutes
same,Peak Expiratory Flow Rate (PEFR) relative to placebo,"respiratory drive; oxycodone 60 mg, 1 hour post-dose",significant (P<0.05) decrease in PEFR at 1 hour post-dose
same,"oxygen saturation level, one subject (adverse event)","respiratory drive; oxycodone 60 mg, approximately 1.5 hours after dosing",86%
same,Cmax dependence on dose,"[2]; BBF 300-900 μg, IR oxycodone 30, 60 mg",increased proportionally with dose
same,AUC(0-t),[2]; 30 mg,216 ng·h/mL
same,Cmax,[2]; 30 mg,65.8 ng/mL
same,Tmax,[2]; 30 mg,1.2 h
same,AUC(0-t),[2]; 60 mg,435 ng·h/mL
same,Cmax,[2]; 60 mg,132 ng/mL
same,Tmax,[2]; 60 mg,1.2 h
